From patent US12568972B2, “Pyridazinol compounds and derivatives, preparation methods, herbicidal compositions and applications thereof” (Qingdao Kingagroot Chemical Compound Co., Ltd., priority 2018, dated 2026)

Experiments:
Assay in all cases: Post-emergence test, weed control effect
Assay type in all cases: in vivo
Conditions in all cases: after 3 weeks
Amaranthus retroflexus = system: Amaranthus retroflexus
Summary of the method: (§1)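 Seeds are sown in soil pots and raised in the greenhouse until the 2-3 leaf stage. Plants are then sprayed with compound dissolved in acetone with Tween-80, diluted in water and supplemented with 80% vegetable oil methyl ester synergist at 1500 g/ha, and fresh weight inhibition is rated 0-10 three weeks later.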

Veronica polita = system: Veronica polita
Summary of the method: as §1

Chenopodiaceae = system: Chenopodiaceae
Summary of the method: as §1

Rorippa indica = system: Rorippa indica
Summary of the method: as §1

Cc1nn(C)c(-c2nnc(C(F)(F)F)cc2O)c1F [Compound 803]
10: weed control effect (activity level), Amaranthus retroflexus (Amaranthus retroflexus; Dose 3000 g/ha) | weed control effect (activity level), Veronica polita (Veronica polita; Dose 3000 g/ha) | weed control effect (activity level), Chenopodiaceae (Chenopodiaceae; Dose 3000 g/ha) | weed control effect (activity level), Rorippa indica (Rorippa indica; Dose 3000 g/ha)

O=C(Oc1cc(C(F)(F)F)nnc1-c1ccccc1)N1CCOCC1 [Compound 1-65]
10: weed control effect, Amaranthus retroflexus (activity level) (Amaranthus retroflexus; Dose 3000 g/ha) | weed control effect, Veronica polita (activity level) (Veronica polita; Dose 3000 g/ha) | weed control effect, Chenopodiaceae (activity level) (Chenopodiaceae; Dose 3000 g/ha) | weed control effect, Rorippa indica (activity level) (Rorippa indica; Dose 3000 g/ha)

Oc1cc(C(F)(F)F)nnc1-c1cncc(Cl)c1Cl [Compound 996]
10: weed control effect (activity level), Amaranthus retroflexus (Amaranthus retroflexus; Dose 3000 g/ha) | weed control effect (activity level), Veronica polita (Veronica polita; Dose 3000 g/ha) | weed control effect (activity level), Chenopodiaceae (Chenopodiaceae; Dose 3000 g/ha) | weed control effect (activity level), Rorippa indica (Rorippa indica; Dose 3000 g/ha)

Oc1cc(C(F)(F)F)nnc1-c1cnc(Cl)c(F)c1 [Compound 1006]
10: weed control effect (activity level), Amaranthus retroflexus (Amaranthus retroflexus; Dose 3000 g/ha) | weed control effect (activity level), Veronica polita (Veronica polita; Dose 3000 g/ha) | weed control effect (activity level), Chenopodiaceae (Chenopodiaceae; Dose 3000 g/ha) | weed control effect (activity level), Rorippa indica (Rorippa indica; Dose 3000 g/ha)

CCCCCC(=O)Oc1cc(C(F)(F)F)nnc1-c1ccc(C#N)cc1 [Compound 1-10]
10: weed control effect, Amaranthus retroflexus (activity level) (Amaranthus retroflexus; Dose 3000 g/ha) | weed control effect, Veronica polita (activity level) (Veronica polita; Dose 3000 g/ha) | weed control effect, Chenopodiaceae (activity level) (Chenopodiaceae; Dose 3000 g/ha) | weed control effect, Rorippa indica (activity level) (Rorippa indica; Dose 3000 g/ha)

Cc1ccc(-c2nnc(C(F)(F)F)cc2O)c(F)c1 [Compound 59]
10: weed control effect (activity level), Amaranthus retroflexus (Amaranthus retroflexus; dose 1000 g/ha) | weed control effect (activity level), Veronica polita (Veronica polita; dose 1000 g/ha) | weed control effect (activity level), Chenopodiaceae (Chenopodiaceae; dose 1000 g/ha) | weed control effect (activity level), Rorippa indica (Rorippa indica; dose 1000 g/ha)

Fc1ccc(-c2nnc(C(F)(F)F)cc2Oc2ccccc2)cc1F [Compound 1-208]
10: weed control effect, Amaranthus retroflexus (activity level) (Amaranthus retroflexus; Dose 3000 g/ha) | weed control effect, Veronica polita (activity level) (Veronica polita; Dose 3000 g/ha) | weed control effect, Chenopodiaceae (activity level) (Chenopodiaceae; Dose 3000 g/ha) | weed control effect, Rorippa indica (activity level) (Rorippa indica; Dose 3000 g/ha)

CC(C)n1nccc1-c1nnc(C(F)(F)F)cc1O [Compound 828]
10: weed control effect (activity level), Amaranthus retroflexus (Amaranthus retroflexus; Dose 3000 g/ha) | weed control effect (activity level), Veronica polita (Veronica polita; Dose 3000 g/ha) | weed control effect (activity level), Chenopodiaceae (Chenopodiaceae; Dose 3000 g/ha) | weed control effect (activity level), Rorippa indica (Rorippa indica; Dose 3000 g/ha)

Cn1ncc(Br)c1-c1nnc(C(F)(F)F)cc1O [Compound 806]
10: weed control effect (activity level), Amaranthus retroflexus (Amaranthus retroflexus; Dose 3000 g/ha) | weed control effect (activity level), Veronica polita (Veronica polita; Dose 3000 g/ha) | weed control effect (activity level), Chenopodiaceae (Chenopodiaceae; Dose 3000 g/ha) | weed control effect (activity level), Rorippa indica (Rorippa indica; Dose 3000 g/ha)

Cn1nc(Cl)cc1-c1nnc(C(F)(F)F)cc1O [Compound 776]
10: weed control effect (activity level), Amaranthus retroflexus (Amaranthus retroflexus; Dose 3000 g/ha) | weed control effect (activity level), Veronica polita (Veronica polita; Dose 3000 g/ha) | weed control effect (activity level), Chenopodiaceae (Chenopodiaceae; Dose 3000 g/ha) | weed control effect (activity level), Rorippa indica (Rorippa indica; Dose 3000 g/ha)

Fc1ccc(-c2nnc(C(F)(F)F)cc2OCc2ccccc2)cc1 [Compound 1-209]
10: weed control effect, Amaranthus retroflexus (activity level) (Amaranthus retroflexus; Dose 3000 g/ha) | weed control effect, Veronica polita (activity level) (Veronica polita; Dose 3000 g/ha) | weed control effect, Chenopodiaceae (activity level) (Chenopodiaceae; Dose 3000 g/ha) | weed control effect, Rorippa indica (activity level) (Rorippa indica; Dose 3000 g/ha)

O=S(=O)(Oc1cc(C(F)(F)F)nnc1-c1ccc(F)c(Cl)c1)c1ccc(Oc2ccc(F)cc2)cc1 [Compound 1-142]
10: weed control effect, Amaranthus retroflexus (activity level) (Amaranthus retroflexus; Dose 3000 g/ha) | weed control effect, Veronica polita (activity level) (Veronica polita; Dose 3000 g/ha) | weed control effect, Chenopodiaceae (activity level) (Chenopodiaceae; Dose 3000 g/ha) | weed control effect, Rorippa indica (activity level) (Rorippa indica; Dose 3000 g/ha)

CCn1nccc1-c1nnc(C(F)(F)F)cc1O [Compound 826]
10: weed control effect (activity level), Amaranthus retroflexus (Amaranthus retroflexus; Dose 3000 g/ha) | weed control effect (activity level), Veronica polita (Veronica polita; Dose 3000 g/ha) | weed control effect (activity level), Chenopodiaceae (Chenopodiaceae; Dose 3000 g/ha) | weed control effect (activity level), Rorippa indica (Rorippa indica; Dose 3000 g/ha)

Oc1cc(C(F)(F)F)nnc1-c1ccccc1F [Compound 26]
10: weed control effect (activity level), Amaranthus retroflexus (Amaranthus retroflexus; dose 1000 g/ha) | weed control effect (activity level), Veronica polita (Veronica polita; dose 1000 g/ha) | weed control effect (activity level), Chenopodiaceae (Chenopodiaceae; dose 1000 g/ha) | weed control effect (activity level), Rorippa indica (Rorippa indica; dose 1000 g/ha)

CCOc1cc(-c2nnc(C(F)(F)F)cc2O)n(C)n1 [Compound 783]
10: weed control effect (activity level), Amaranthus retroflexus (Amaranthus retroflexus; Dose 3000 g/ha) | weed control effect (activity level), Veronica polita (Veronica polita; Dose 3000 g/ha) | weed control effect (activity level), Chenopodiaceae (Chenopodiaceae; Dose 3000 g/ha) | weed control effect (activity level), Rorippa indica (Rorippa indica; Dose 3000 g/ha)

Cn1ncc(CC(F)(F)F)c1-c1nnc(C(F)(F)F)cc1O [Compound 825]
10: weed control effect (activity level), Amaranthus retroflexus (Amaranthus retroflexus; Dose 3000 g/ha) | weed control effect (activity level), Veronica polita (Veronica polita; Dose 3000 g/ha) | weed control effect (activity level), Chenopodiaceae (Chenopodiaceae; Dose 3000 g/ha) | weed control effect (activity level), Rorippa indica (Rorippa indica; Dose 3000 g/ha)

Oc1cc(C(F)(F)F)nnc1-c1c(F)ccnc1F [Compound 987]
10: weed control effect (activity level), Amaranthus retroflexus (Amaranthus retroflexus; Dose 3000 g/ha) | weed control effect (activity level), Veronica polita (Veronica polita; Dose 3000 g/ha) | weed control effect (activity level), Chenopodiaceae (Chenopodiaceae; Dose 3000 g/ha) | weed control effect (activity level), Rorippa indica (Rorippa indica; Dose 3000 g/ha)

Oc1cc(C(F)(F)F)nnc1-c1cccc2cc[nH]c12 [Compound 589]
10: weed control effect (activity level), Amaranthus retroflexus (Amaranthus retroflexus; Dose 3000 g/ha) | weed control effect (activity level), Veronica polita (Veronica polita; Dose 3000 g/ha) | weed control effect (activity level), Chenopodiaceae (Chenopodiaceae; Dose 3000 g/ha) | weed control effect (activity level), Rorippa indica (Rorippa indica; Dose 3000 g/ha)
